Patent US20240368156A1, “2-AZABICYCLO[2.2.1]HEPTANE KRAS INHIBITORS” (INCYTE CORPORATION, priority 2023, published 2024)

Legend:
KRAS G12V = KRAS G12V (Homo sapiens, UniProt P01116, G12V); assay: GDP-GTP exchange assay (bodipy-GDP/GppNHp, SOS1), KRAS G12V; format: biochemical; details: 2.5 nM bodipy-loaded KRAS G12V, 3 h incubation after adding GppNHp-SOS1; for certain compounds the most potent isomer is quoted; read-out: KRAS_G12V exchange assay IC50
In short: (§1)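 Bodipy-GDP-loaded KRAS G12D or G12V (2.5 nM) pre-incubated 4 h at r.t. with inhibitor in Hepes pH 7.5, 10 mM MgCl2, then exchange started with 500 μM GppNHp and 150 nM SOS1 (final); 2 h (G12D) or 3 h (G12V). Fluorescence at 485/520 nm; IC50 from four-parameter logistic fit.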

KRAS G12D = KRAS G12D (Homo sapiens, UniProt P01116, G12D); assay: GDP-GTP exchange assay (bodipy-GDP/GppNHp, SOS1), KRAS G12D; format: biochemical; details: 2.5 nM bodipy-loaded KRAS G12D, 4 h pre-incubation, 2 h reaction with GppNHp and SOS1; for certain compounds the most potent isomer is quoted; read-out: KRAS_G12D exchange assay IC50
Chain of KRAS G12D (P01116 1-188 isoform P01116-2 G12D): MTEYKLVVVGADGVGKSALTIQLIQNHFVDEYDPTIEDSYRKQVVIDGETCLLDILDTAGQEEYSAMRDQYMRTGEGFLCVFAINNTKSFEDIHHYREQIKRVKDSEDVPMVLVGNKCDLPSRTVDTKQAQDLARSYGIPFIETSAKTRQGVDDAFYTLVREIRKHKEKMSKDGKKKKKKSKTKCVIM
In short: as §1

Chain of KRAS G12V (P01116 1-188 isoform P01116-2 G12V): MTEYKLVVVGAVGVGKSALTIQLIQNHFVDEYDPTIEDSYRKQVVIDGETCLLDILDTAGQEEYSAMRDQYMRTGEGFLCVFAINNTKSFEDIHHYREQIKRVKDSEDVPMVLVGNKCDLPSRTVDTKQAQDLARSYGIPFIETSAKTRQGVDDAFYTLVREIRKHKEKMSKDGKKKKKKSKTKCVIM

Row | IC50 (KRAS G12V) [nM] | IC50 (KRAS G12D) [nM] | Structure (SMILES)
1 | ≤ 100 | ≤ 100 | Cc1nc2c(F)c(-c3cccc(Cl)c3Cl)c(CCC#N)cc2c2c1cc([C@H]1[C@H]3C[C@H](C[C@@H]3Oc3ccncc3)N1C(=O)C1CC1)n2[C@H]1[C@H]2CN[C@@H]1C2 (atropisomer, axis not shown) [Example 31, 3-((R)-1-((1R,4R,5S)-2-azabicyclo[2.1.1]hexan-5-yl)-2-((1R,3R,4R,5S)-2-(cyclopropanecarbonyl)-5-(pyridin-4-yloxy)-2-azabicyclo[2.2.1]heptan-3-yl)-7-(2,3-dichlorophenyl)-6-fluoro-4-methyl-1H-pyrrolo[3,2-c]quinolin-8-yl)propanenitrile]
2 | 100 to 1000 | 100 to 1000 | CO[C@@H]1C[C@H]2C[C@@H]1[C@H](c1cc3c(C)nc4c(F)c(-c5cccc(Cl)c5Cl)c(CCC#N)cc4c3n1C1[C@H]3CN[C@@H]1C3)N2C(=O)C1CC1 (stereo partly drawn) [Example 22, 3-(1-((1R,4R)-2-azabicyclo[2.1.1]hexan-5-yl)-2-((1R,3R,4R,5R)-2-(cyclopropanecarbonyl)-5-methoxy-2-azabicyclo[2.2.1]heptan-3-yl)-7-(2,3-dichlorophenyl)-6-fluoro-4-methyl-1H-pyrrolo[3,2-c]quinolin-8-yl)propanenitrile]
3 | ≤ 100 | ≤ 100 | CNC(=O)c1ccc(-c2nc3c(F)c(-c4cccc(Cl)c4Cl)c(CCC#N)cc3c3c2cc([C@H]2[C@@H]4CC[C@@H](C4)N2C(=O)C2CC2)n3[C@H]2[C@H]3CN[C@@H]2C3)cc1F [Example 14, 4-(1-((1R,4R,5S)-2-azabicyclo[2.1.1]hexan-5-yl)-8-(2-cyanoethyl)-2-((1S,3R,4R)-2-(cyclopropanecarbonyl)-2-azabicyclo[2.2.1]heptan-3-yl)-7-(2,3-dichlorophenyl)-6-fluoro-1H-pyrrolo[3,2-c]quinolin-4-yl)-2-fluoro-N-methylbenzamide]
